Measurements: patent US9302999B2, “Substituted triazoles as herbicides” (E. I. DU PONT DE NEMOURS AND COMPANY, priority 2012, dated 2016)

Columns and labels:
Assay type in all cases: in vivo
[1] = system: crabgrass, large (large crabgrass, Digitaria sanguinalis); assay: Test A pre-/postemergence: crabgrass, large; details: for Crabgrass, Large plant response rating: visual rating on 0 to 100 scale (0 no effect, 100 complete control), approximately ten days
Procedure, shortened: (§1)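 Injury is scored visually on a scale where 0 means no effect and 100 complete control, comparing treated with untreated plants after approximately ten greenhouse days. Both preemergence and postemergence applications are made at the same time.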

[2] = system: foxtail, giant (giant foxtail, Setaria faberii); assay: Test A pre-/postemergence: foxtail, giant; details: for Foxtail, Giant plant response rating: visual rating on 0 to 100 scale (0 no effect, 100 complete control), approximately ten days
Procedure, shortened: as §1

[3] = system: pigweed (Amaranthus retroflexus); assay: Test A pre-/postemergence: pigweed; details: for Pigweed plant response rating: visual rating on 0 to 100 scale (0 no effect, 100 complete control), approximately ten days
Procedure, shortened: as §1

[4] = system: velvetleaf (Abutilon theophrasti); assay: Test A pre-/postemergence: velvetleaf; details: for Velvetleaf plant response rating: visual rating on 0 to 100 scale (0 no effect, 100 complete control), approximately ten days
Procedure, shortened: as §1

[5] = system: wheat (Triticum aestivum); assay: Test A pre-/postemergence: wheat; details: for Wheat plant response rating: visual rating on 0 to 100 scale (0 no effect, 100 complete control), approximately ten days
Procedure, shortened: as §1

[6] = system: barnyardgrass (Echinochloa crus-galli); assay: Test B flooded paddy: barnyardgrass; details: Flood; 250 g ai/ha; applied to paddy water at 2-leaf stage; visually evaluated after 13 to 15 days
Procedure, shortened: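 Greenhouse assay lasting 13 to 15 days. Treatment was into water flooding pots 3 cm deep, at the 2-leaf stage, with that level sustained afterwards. Scores compare treated with control plants visually, 100 denoting complete control and 0 no effect; a dash marks no test result.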

[7] = system: blackgrass (Alopecurus myosuroides); assay: Test C pre-/postemergence: blackgrass
Procedure, shortened: (§2)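 Visual injury scored 0–100 (100 = complete control) against untreated controls after 13–15 greenhouse days. Surfactant-containing solvent formulations applied either to soil after sowing (loam/sand) or over 1- to 4-leaf plants, 2–18 cm tall.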

[8] = system: morningglory (Ipomoea coccinea); assay: Test C pre-/postemergence: morningglory
Procedure, shortened: as §2

[9] = system: ragweed (common ragweed, Ambrosia elation); assay: Test C pre-/postemergence: ragweed
Procedure, shortened: as §2

[10] = system: chickweed (common chickweed, Stellaria media); assay: Test C postemergence: chickweed
Procedure, shortened: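 Response values are visual ratings, 0 (no effect) to 100 (complete control), made by comparison with untreated controls 13 to 15 days after postemergence treatment of greenhouse-grown potted plants that were 2 to 18 cm high at spraying.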

[11] = Postemergence, 125 g ai/ha, 0 to 100 scale, 0 is no effect, 100 is complete control
[12] = Preemergence, 125 g ai/ha, 0 to 100 scale where 0 is no effect and 100 is complete control
[13] = Preemergence, 500 g ai/ha, 0 to 100 scale (0 no effect, 100 complete control)
[14] = Postemergence, 31 g ai/ha, scale 0 to 100 (0 no effect, 100 complete control)
[15] = Postemergence, 62 g ai/ha, scale 0 to 100 (0 no effect, 100 complete control)
[16] = Postemergence, 125 g ai/ha, scale 0 to 100, 0 no effect, 100 complete control
[17] = Postemergence, 250 g ai/ha, scale 0 to 100
[18] = Preemergence, 31 g ai/ha, scale of 0 to 100, 0 is no effect, 100 is complete control
[19] = Preemergence, 62 g ai/ha, scale of 0 to 100, 0 is no effect, 100 is complete control
[20] = Preemergence, 125 g ai/ha, scale 0 to 100, 0 no effect, 100 complete control
[21] = Preemergence, 250 g ai/ha, scale 0 to 100, 0 no effect, 100 complete control
[22] = 31 g ai/ha, scale 0 to 100 (0 no effect, 100 complete control)
[23] = 62 g ai/ha, scale 0 to 100 (0 no effect, 100 complete control)
[24] = 125 g ai/ha, scale 0 to 100, 0 no effect, 100 complete control
[25] = Postemergence, 16 g ai/ha, scale 0 to 100, 0 no effect, 100 complete control
[26] = Preemergence, 16 g ai/ha, scale 0 (no effect) to 100 (complete control)

## CCc1nn(-c2ccc(C(F)(F)F)cc2)nc1Cc1ccnc(C(F)(F)F)c1 [Compound 155]
[1]; [11]
  Plant response rating, Crabgrass, Large: 100
[1]; Postemergence, 500 g ai/ha
  Crabgrass, Large plant response rating: 100
[1]; [12]
  Plant response rating, Crabgrass, Large: 100
[1]; [13]
  Plant response rating, Crabgrass, Large: 100
[2]; [11]
  Plant response rating, Foxtail, Giant: 90
[2]; Postemergence, 500 g ai/ha
  Foxtail, Giant plant response rating: 100
[2]; [12]
  Plant response rating, Foxtail, Giant: 100
[2]; [13]
  Plant response rating, Foxtail, Giant: 100
[3]; [11]
  Plant response rating, Pigweed: 100
[3]; Postemergence, 500 g ai/ha
  Pigweed plant response rating: 100
[3]; [12]
  Plant response rating, Pigweed: 100
[3]; [13]
  Plant response rating, Pigweed: 100
[4]; [11]
  Plant response rating, Velvetleaf: 100
[4]; Postemergence, 500 g ai/ha
  Velvetleaf plant response rating: 100
[5]; [11]
  Plant response rating, Wheat: 40
[5]; Postemergence, 500 g ai/ha
  Wheat plant response rating: 80
[5]; [12]
  Plant response rating, Wheat: 10
[5]; [13]
  Plant response rating, Wheat: 70
[6]
  Plant response rating, Barnyardgrass (0 to 100 scale, 0 is no effect, 100 is complete control): 75
[7]; [14]
  Plant response rating, Blackgrass: 40
[7]; [15]
  Plant response rating, Blackgrass: 70
[7]; [16]
  Plant response rating, Blackgrass: 85
[7]; [17]
  Plant response rating, Blackgrass: 90
[7]; [18]
  Plant response rating, Blackgrass: 90
[7]; [19]
  Plant response rating, Blackgrass: 90
[7]; [20]
  Plant response rating, Blackgrass: 90
[7]; [21]
  Plant response rating, Blackgrass: 90
[8]; [14]
  Plant response rating, Morningglory: 55
[8]; [15]
  Plant response rating, Morningglory: 65
[8]; [16]
  Plant response rating, Morningglory: 65
[8]; [17]
  Plant response rating, Morningglory: 98
[8]; [18]
  Plant response rating, Morningglory: 10
[8]; [19]
  Plant response rating, Morningglory: 40
[8]; [20]
  Plant response rating, Morningglory: 60
[8]; [21]
  Plant response rating, Morningglory: 90
[9]; [14]
  Plant response rating, Ragweed: 80
[9]; [16]
  Plant response rating, Ragweed: 85
[9]; [17]
  Plant response rating, Ragweed: 85
[9]; [18]
  Plant response rating, Ragweed: 20
[9]; [19]
  Plant response rating, Ragweed: 40
[9]; [20]
  Plant response rating, Ragweed: 85
[9]; [21]
  Plant response rating, Ragweed: 95
[10]; [22]
  Plant response rating, Chickweed: 50
[10]; [23]
  Plant response rating, Chickweed: 70
[10]; [24]
  Plant response rating, Chickweed: 95
[10]; 250 g ai/ha, scale 0 to 100
  Plant response rating, Chickweed: 100

## Cc1nn(-c2ccc(F)c(C(F)(F)F)c2)nc1Cc1ccnc(C(F)(F)F)c1 [Compound 156]
[1]; [11]
  Plant response rating, Crabgrass, Large: 100
[1]; Postemergence, 500 g ai/ha
  Crabgrass, Large plant response rating: 100
[1]; [12]
  Plant response rating, Crabgrass, Large: 100
[1]; [13]
  Plant response rating, Crabgrass, Large: 100
[2]; [11]
  Plant response rating, Foxtail, Giant: 90
[2]; Postemergence, 500 g ai/ha
  Foxtail, Giant plant response rating: 100
[2]; [12]
  Plant response rating, Foxtail, Giant: 100
[2]; [13]
  Plant response rating, Foxtail, Giant: 100
[3]; [11]
  Plant response rating, Pigweed: 100
[3]; Postemergence, 500 g ai/ha
  Pigweed plant response rating: 100
[3]; [12]
  Plant response rating, Pigweed: 100
[3]; [13]
  Plant response rating, Pigweed: 100
[4]; [11]
  Plant response rating, Velvetleaf: 100
[4]; Postemergence, 500 g ai/ha
  Velvetleaf plant response rating: 100
[4]; [12]
  Plant response rating, Velvetleaf: 30
[5]; [11]
  Plant response rating, Wheat: 40
[5]; Postemergence, 500 g ai/ha
  Wheat plant response rating: 60
[5]; [12]
  Plant response rating, Wheat: 20
[5]; [13]
  Plant response rating, Wheat: 80
[6]
  Plant response rating, Barnyardgrass (0 to 100 scale, 0 is no effect, 100 is complete control): 75
[7]; [14]
  Plant response rating, Blackgrass: 50
[7]; [15]
  Plant response rating, Blackgrass: 60
[7]; [16]
  Plant response rating, Blackgrass: 75
[7]; [17]
  Plant response rating, Blackgrass: 85
[7]; [18]
  Plant response rating, Blackgrass: 85
[7]; [19]
  Plant response rating, Blackgrass: 90
[7]; [20]
  Plant response rating, Blackgrass: 90
[7]; [21]
  Plant response rating, Blackgrass: 90
[8]; [14]
  Plant response rating, Morningglory: 65
[8]; [15]
  Plant response rating, Morningglory: 70
[8]; [16]
  Plant response rating, Morningglory: 75
[8]; [17]
  Plant response rating, Morningglory: 100
[8]; [18]
  Plant response rating, Morningglory: 5
[8]; [19]
  Plant response rating, Morningglory: 10
[8]; [20]
  Plant response rating, Morningglory: 10
[8]; [21]
  Plant response rating, Morningglory: 30
[9]; [14]
  Plant response rating, Ragweed: 75
[9]; [15]
  Plant response rating, Ragweed: 75
[9]; [16]
  Plant response rating, Ragweed: 75
[9]; [17]
  Plant response rating, Ragweed: 80
[9]; [18]
  Plant response rating, Ragweed: 5
[9]; [19]
  Plant response rating, Ragweed: 10
[9]; [20]
  Plant response rating, Ragweed: 30
[9]; [21]
  Plant response rating, Ragweed: 60
[10]; [22]
  Plant response rating, Chickweed: 95
[10]; [23]
  Plant response rating, Chickweed: 95
[10]; [24]
  Plant response rating, Chickweed: 95
[10]; 250 g ai/ha, scale 0 to 100
  Plant response rating, Chickweed: 98

## FCc1nn(-c2ccc(F)cc2)nc1Oc1ccnc(C(F)(F)F)c1 [Compound 160]
[1]; [11]
  Plant response rating, Crabgrass, Large: 90
[1]; Postemergence, 500 g ai/ha
  Crabgrass, Large plant response rating: 90
[1]; [12]
  Plant response rating, Crabgrass, Large: 100
[1]; [13]
  Plant response rating, Crabgrass, Large: 100
[2]; [11]
  Plant response rating, Foxtail, Giant: 90
[2]; Postemergence, 500 g ai/ha
  Foxtail, Giant plant response rating: 90
[2]; [12]
  Plant response rating, Foxtail, Giant: 100
[2]; [13]
  Plant response rating, Foxtail, Giant: 100
[3]; [11]
  Plant response rating, Pigweed: 100
[3]; Postemergence, 500 g ai/ha
  Pigweed plant response rating: 100
[3]; [12]
  Plant response rating, Pigweed: 100
[3]; [13]
  Plant response rating, Pigweed: 100
[4]; [11]
  Plant response rating, Velvetleaf: 90
[4]; Postemergence, 500 g ai/ha
  Velvetleaf plant response rating: 100
[4]; [12]
  Plant response rating, Velvetleaf: 50
[4]; [13]
  Plant response rating, Velvetleaf: 70
[5]; [11]
  Plant response rating, Wheat: 40
[5]; Postemergence, 500 g ai/ha
  Wheat plant response rating: 50
[5]; [12]
  Plant response rating, Wheat: 30
[5]; [13]
  Plant response rating, Wheat: 50
[6]
  Plant response rating, Barnyardgrass (0 to 100 scale, 0 is no effect, 100 is complete control): 65
[7]; [25]
  Plant response rating, Blackgrass: 25
[7]; [14]
  Plant response rating, Blackgrass: 35
[7]; [15]
  Plant response rating, Blackgrass: 45
[7]; [16]
  Plant response rating, Blackgrass: 65
[7]; [26]
  Plant response rating, Blackgrass: 0
[7]; [18]
  Plant response rating, Blackgrass: 40
[7]; [19]
  Plant response rating, Blackgrass: 90
[7]; [20]
  Plant response rating, Blackgrass: 90
[8]; [25]
  Plant response rating, Morningglory: 60
[8]; [14]
  Plant response rating, Morningglory: 60
[8]; [15]
  Plant response rating, Morningglory: 98
[8]; [16]
  Plant response rating, Morningglory: 98
[8]; [26]
  Plant response rating, Morningglory: 0
[8]; [18]
  Plant response rating, Morningglory: 5
[8]; [19]
  Plant response rating, Morningglory: 15
[8]; [20]
  Plant response rating, Morningglory: 20
[9]; [25]
  Plant response rating, Ragweed: 10
[9]; [14]
  Plant response rating, Ragweed: 10
[9]; [15]
  Plant response rating, Ragweed: 40
[9]; [16]
  Plant response rating, Ragweed: 40
[9]; [26]
  Plant response rating, Ragweed: 0
[9]; [18]
  Plant response rating, Ragweed: 0
[9]; [19]
  Plant response rating, Ragweed: 5
[9]; [20]
  Plant response rating, Ragweed: 5
[10]; 16 g ai/ha, scale 0 to 100, 0 no effect, 100 complete control
  Plant response rating, Chickweed: 70
[10]; [22]
  Plant response rating, Chickweed: 90
[10]; [23]
  Plant response rating, Chickweed: 95
[10]; [24]
  Plant response rating, Chickweed: 98
